Experimental data as given in patent publication US7951951B2, “Bicyclic enamino(thio)carbonyl compounds” (Bayer Cropscience AG, priority 2006, dated 2011).

Legend:
Type in all cases: in vivo
[1] = system: green peach aphid (Myzus persicae); assay: Myzus test; oral (MYZUPE O); conditions: 100 ppm, oral (sucking at the preparation)
Description: Myzus Test; Oral; (MYZUPE O)
Solvent: 80 parts by weight of acetone
To produce a suitable preparation of active compound, 1 part by weight of active compound is mixed with the stated amounts of solvent and emulsifier, and the concentrate is diluted with water to the desired concentration.
Containers are populated with all stages of the green peach aphid (Myzus persicae), the treatment is by sucking at the preparation of active compound of the desired concentration.
(§1) After the desired period of time, the effect in % is determined. 100% means that all aphids have been killed; 0% means that none of the aphids have been killed.
(§2) In this test, for example, the following compounds of the Preparation Examples show good activity: see table

[2] = system: green peach aphid (Myzus persicae); assay: Myzus test (MYZUPE spray treatment); conditions: spray on infested Chinese cabbage discs; for pest or weed control at 500 g/ha: Myzus persicae, in Brassica rapa, 120 h, after 5 days, read-out: Kill rate in % after 5 days; for Kill rate in % after 5 days: 500 g/ha
Description: Myzus Test (MYZUPE Spray Treatment)
(§3) Solvents: 78 parts by weight of acetone • • 1.5 parts by weight of dimethylformamide
(§4) Emulsifier: 0.5 part by weight of alkylaryl polyglycol ether
(§5) To produce a suitable preparation of active compound, 1 part by weight of active compound is mixed with the stated amounts of solvents and emulsifier, and the concentrate is diluted with emulsifier-containing water to the desired concentration.
Discs of Chinese cabbage (Brassica pekinensis) which are infested by all stages of the green peach aphid (Myzus persicae) are sprayed with a preparation of active compound of the desired concentration.
as §1
On this test, for example, the following compounds of the Preparation Examples show good activity: see table

[3] = system: greenhouse red spider mite (Tetranychus urticae); assay: Tetranychus test, OP-resistant (TETRUR spray treatment); conditions: 500 g/ha, sprayed bean leaf discs
Description: Tetranychus Test, OP-Resistant (TETRUR Spray Treatment)
as §3, §4, §5
Discs of bean leaves (Phaseolus vulgaris) which are infested by all stages of the greenhouse red spider mite (Tetranychus urticae) are sprayed with a preparation of active compound of the desired concentration.
After the desired period of time, the effect in % is determined. 100% means that all spider mites have been killed; 0% means that none of the spider mites have been killed.
(§6) In this test, for example, the following compounds of the Preparation Examples show good activity: see table.

[4] = system: larvae of the mustard beetle (Phaedon cochleariae); assay: Phaedon cochleariae test (PHAECO spray treatment); conditions: 500 g/ha, sprayed Chinese cabbage discs
Description: Phaedon cochleariae Test (PHAECO Spray Treatment)
as §3, §4, §5
After the desired period of time, the effect in % is determined. 100% means that all beetle larvae have been killed; 0% means that none of the beetle larvae have been killed.
as §2

[5] = system: cotton aphid (Aphis gossypii); assay: Aphis gossypii test (APHIGO), leaf dipping; conditions: cotton leaves dipped
Description: (§7) Aphis gossypii Test (APHIGO)
Solvent: 7 parts by weight of dimethylformrnamide
(§8) Emulsifier: 2 parts by weight of alkylaryl polyglycol ether
(§9) To produce a suitable preparation of active compound, 1 part by weight of active compound is mixed with the stated amounts of solvent and emulsifier, and the concentrate is diluted with emulsifier-containing water to the desired concentration.
Cotton leaves (Gossypium hirsutum) which are heavily infested by the cotton aphid (Aphis gossypii) are treated by being dipped into the preparation of active compound of the desired concentration.
(§10) After the desired period of time, the kill in % is determined. 100% means that all aphids have been killed; 0% means that none of the aphids have been killed.
as §6

[6] = system: Lucilia cuprina larvae; assay: Lucilia cuprina test (LUCICU); conditions: 100 ppm, treated horse meat
Description: Lucilia cuprina Test (LUCICU)
Solvent: dimethyl sulphoxide
To produce a suitable preparation of active compound, 1 part by weight of active compound is mixed with the stated amount of water and the concentrate is diluted with water to the desired concentration.
Containers containing horse meat treated with the preparation of active compound of the desired concentration are populated with Lucilia cuprina larvae.
After the desired period of time, the kill in % is determined. 100% means that all larvae have been killed; 0% means that none of the larvae have been killed.
as §6

[7] = system: green peach aphid (Myzus persicae); assay: Myzus persicae test, hydroponic treatment (MYZUPE sys.); conditions: 20 ppm, hydroponic treatment of pea plant
Description: Myzus persicae Test, Hydroponic Treatment (MYZUPE sys.)
(§11) Solvent: 7 parts by weight of dimethylformamide
as §8, §9
The preparation of active compound is mixed with water. The stated concentration refers to the amount of active compound per volume unit of […] (mg/l=ppm). The treated water is filled into containers housing a pea plant (Pisum sativum) which is then infected with the green peach aphid (Myzus persicae).
as §10, §6

[8] = system: caterpillars of the armyworm (Spodoptera frugiperda); assay: Spodoptera frugiperda test (SPODFR spray treatment); conditions: 500 g/ha, sprayed maize leaf discs
Description: Spodoptera frugiperda Test (SPODFR Spray Treatment)
as §3, §4, §5
Discs of maize leaves (Zea mays) are sprayed with a preparation of active compound of the desired concentration and, after drying, populated with caterpillars of the armyworm (Spodoptera frugiperda).
After the desired period of time, the effect in % is determined. 100% means that all caterpillars have been killed; 0% means that none of the caterpillars have been killed.
as §2

[9] = system: cotton aphid (Aphis gossypii); assay: Aphis gossypii test (APHIGO), spraying; conditions: 12 g/ha, cotton leaves sprayed
Description: as §7, §11
Emulsifier: 1 part by weight of alkylaryl polyglycol ether
as §9
Cotton leaves (Gossypium hirsutum) which are heavily infested by the cotton aphid (Aphis gossypii) are treated by spraying with the preparation of active compound at the stated concentration.
After the desired period of time, the kill in % is determined. 100% means that all animals have been killed; 0% means that none of the animals have been killed.
as §2

In the case of `CC1CC2OC(=O)C=C2N(Cc2ccc(Cl)nc2)C1` (single isomer, unassigned) [Example I-12a, 4-[(6-Chloropyridin-3-yl)methyl]-6-methyl-5,6,7,7a-tetrahydrofuro[3,2-b]-pyridin-2(4H)-on], the “Kill rate in % after 5 days” value [1] is reported as 100% and the pest or weed control at 500 g/ha [2] is reported as 100%.

With `CC1CC2OC(=O)C=C2N(Cc2ccc(Cl)nc2)C1` (single isomer, unassigned) [Example I-12b, 4-[(6-Chloropyridin-3-yl)methyl]-6-methyl-5,6,7,7a-tetrahydrofuro[3,2-b]-pyridin-2(4H)-on] the “Kill rate in % after 5 days” value [1] was 100%, the “Kill rate in % after 6 days” value [3] was 90% and the “Kill rate in % after 5 days” value [2] was 100%.

For `O=C1C=C2C(CC(Cl)CN2Cc2ccc(Cl)nc2)O1` (single isomer, unassigned) [Example I-17a, 4-[(6-Chloropyridin-3-yl)methyl]-6-chloro-5,6,7,7a-tetrahydrofuro[3,2-b]-pyridin-2(4H)-one], the “Kill rate in % after 7 days” value [4] was 100% and the pest or weed control at 500 g/ha [2] was 100%.

In the case of `O=C1C=C2C(CC(Cl)CN2Cc2ccc(Cl)nc2)O1` (single isomer, unassigned) [Example I-17b, 4-[(6-Chloropyridin-3-yl)methyl]-6-chloro-5,6,7,7a-tetrahydrofuro[3,2-b]-pyridin-2(4H)-one], the “Kill rate in % after 5 days” value [2] is reported as 90%.

With `O=C1C=C2C(OCCN2Cc2ccc(Cl)nc2)O1` (stereo not shown) [Example I-1, 1-[(6-Chloropyridin-3-yl)methyl]-2,3-dihydro-1H-furo[2,3-b][1,4]oxazin-6(4aH)-one] the “Kill rate in % after 5 days” value [1] was 100% and the pest or weed control at 500 g/ha [2] was 100%.

With `O=C1C=C2C(CCCN2Cc2ccc(Cl)nc2)O1` (stereo not shown) [Example I-2, 4-[(6-Chloropyridin-3-yl)methyl]-5,6,7,7a-tetrahydrofuro[3,2-b]pyridin-2(4H)-one] the “Kill rate in % after 6 days” value ([5]; 20 ppm) was 95%, the pest or weed control at 500 g/ha [2] was 100% and the “Kill rate in % after 2 days” value [6] was 100%. For the same compound, the “Kill rate in % after 6 days” value [7] was 100%, the “Kill rate in % after 7 days” value [8] was 100% and the “Kill rate in % after 7 days” value [9] was 85%.

`O=C1C=C2[C@@H](CCCN2Cc2ccc(Cl)nc2)O1` [Example I-3] was tested, and the “Kill rate in % after 7 days” value [4] was 100%, the pest or weed control at 500 g/ha [2] was 100% and the “Kill rate in % after 7 days” value [8] was 100%.

For `O=C1C=C2[C@H](CCCN2Cc2ccc(Cl)nc2)O1` [Example I-4], the “Kill rate in % after 7 days” value [4] was 100% and the pest or weed control at 500 g/ha [2] was 100%.

`O=C1C=C2C(CC=CCN2Cc2ccc(Cl)nc2)O1` (stereo not shown) [Example I-6, 4-[(6-Chloropyridin-3-yl)methyl]-4,5,8,8a-tetrahydro-2H-furo[3,2-b]azepin-2-one] was tested, and the pest or weed control at 500 g/ha [2] was 100% and the “Kill rate in % after 2 days” value [6] was 100%.

With `O=C1C=C2C(CCCCN2Cc2ccc(Cl)nc2)O1` (stereo not shown) [Example I-7, 4-[(6-Chloropyridin-3-yl)methyl]-4,5,6,7,8,8a-hexahydro-2H-furo[3,2-b]-azepin-2-one] the “Kill rate in % after 6 days” value ([5]; 100 ppm) was 95%, the pest or weed control at 500 g/ha [2] was 100% and the “Kill rate in % after 6 days” value [7] was 100%.

Work on `O=C1OC2COCN(Cc3ccc(Cl)nc3)C2=C1Cl` (stereo not shown) [Example I-8] yielded a pest or weed control at 500 g/ha [2] of 100%.

With `O=C1OC2CCCN(Cc3ccc(Cl)nc3)C2=C1Cl` (stereo not shown) [Example I-9] the “Kill rate in % after 6 days” value ([5]; 100 ppm) was 90%, the pest or weed control at 500 g/ha [2] was 100% and the “Kill rate in % after 2 days” value [6] was 80%. For the same compound, the “Kill rate in % after 6 days” value [7] was 100%.

`CC12CCCN(Cc3ccc(Cl)nc3)C1=CC(=O)O2` (stereo not shown) [Example I-10, 4-[(6-Chloropyridin-3-yl]methyl]-7a-methyl-5,6,7,7a-tetrahydrofuro[3,2-b]-pyridin-2(4H)-one] showed a pest or weed control at 500 g/ha [2] of 100%.

`O=CC1=C2C(CCCN2Cc2ccc(Cl)nc2)OC1=O` (stereo not shown) [Example I-11, 3-Formyl-4-[(6-chloropyridin-3-yl)methyl]-5,6,7,7a-tetrahydrofuro [3,2-b]-pyridin-2(4H)-one] showed a pest or weed control at 500 g/ha [2] of 100%.

In the case of `O=C1CC2OC(=O)C=C2N(Cc2ccc(Cl)nc2)C1` (stereo not shown) [Example I-14], the “Kill rate in % after 5 days” value [1] is reported as 100% and the pest or weed control at 500 g/ha [2] is reported as 100%.

`O=C1C=C2C(CC(F)(F)CN2Cc2ccc(Cl)nc2)O1` (stereo not shown) [Example I-15] was tested, and the pest or weed control at 500 g/ha [2] was 100%.

`O=C1C=C2C(CC=CN2Cc2ccc(Cl)nc2)O1` (stereo not shown) [Example I-18, 4-[(6-Chloropyridin-3-yl)methyl]-7,7a-dihydrofuro[3,2-b]pyridin-2(4H)-one] was tested, and the pest or weed control at 500 g/ha [2] was 100%.

For `O=C1C=C2C(O1)C(O)CCN2Cc1ccc(Cl)nc1` (stereo not shown) [Example I-19], the pest or weed control at 500 g/ha [2] was 100%.

For `O=C1C=C2C(=CCCN2Cc2ccc(Cl)nc2)O1` [Example I-20, 4-[(6-Chloropyridin-3-yl)methyl]-5,6-dihydrofuro[3,2-b]pyridin-2(4H)-one], the “Kill rate in % after 7 days” value [4] was 100% and the pest or weed control at 500 g/ha [2] was 100%.
